Biological target: T1, hFXR (Homo sapiens, UniProt Q96RI1)
T1 construct: expressed in transfected cells; host or cells: CV-1 cells
T1 sequence (Q96RI1 1-486): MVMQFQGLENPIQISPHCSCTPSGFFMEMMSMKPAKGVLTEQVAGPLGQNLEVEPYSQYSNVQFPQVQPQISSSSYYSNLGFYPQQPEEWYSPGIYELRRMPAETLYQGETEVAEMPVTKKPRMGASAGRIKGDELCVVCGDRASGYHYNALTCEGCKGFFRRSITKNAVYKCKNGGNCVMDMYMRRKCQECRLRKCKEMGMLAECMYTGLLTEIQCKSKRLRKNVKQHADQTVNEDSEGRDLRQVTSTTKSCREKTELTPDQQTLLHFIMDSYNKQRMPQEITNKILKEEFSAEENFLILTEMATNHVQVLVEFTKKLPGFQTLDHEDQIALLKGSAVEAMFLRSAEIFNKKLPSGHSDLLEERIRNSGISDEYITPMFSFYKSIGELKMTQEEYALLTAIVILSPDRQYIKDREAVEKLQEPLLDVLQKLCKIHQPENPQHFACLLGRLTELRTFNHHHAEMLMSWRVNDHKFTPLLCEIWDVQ
T1 sequence (P19793 1-462 partner): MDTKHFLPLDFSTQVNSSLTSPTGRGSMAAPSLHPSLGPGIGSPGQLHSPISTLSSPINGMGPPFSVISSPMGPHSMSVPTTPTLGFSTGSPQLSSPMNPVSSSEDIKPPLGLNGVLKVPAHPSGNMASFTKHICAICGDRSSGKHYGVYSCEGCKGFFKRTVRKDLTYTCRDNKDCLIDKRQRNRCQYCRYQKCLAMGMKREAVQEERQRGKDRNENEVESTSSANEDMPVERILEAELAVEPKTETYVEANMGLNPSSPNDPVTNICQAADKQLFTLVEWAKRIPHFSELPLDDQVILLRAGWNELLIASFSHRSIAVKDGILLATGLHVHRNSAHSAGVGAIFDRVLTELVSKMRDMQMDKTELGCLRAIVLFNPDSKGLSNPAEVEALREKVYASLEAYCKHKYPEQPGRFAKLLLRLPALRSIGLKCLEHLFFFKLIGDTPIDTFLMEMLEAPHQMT
Experiment: In Vitro FXR Assay (TK)
Type: cell-based
Details: CV-1 cells transfected with hFXR, hRXR, TK-ECRE-luc and pCMX-YFP; incubated with compound for 18 hrs; luminescence
Procedure, shortened: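 CV-1 cells transiently cotransfected with hFXR, hRXR, TK-ECRE-luc reporter and pCMX-YFP plasmids in charcoal-stripped serum medium. Serially diluted compounds added for 18 h at 37° C., then cells lysed and luciferase luminescence measured.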

EC50, 50 to 1000 nM:
COc1ccc(C23CCC(CN(c4cc(-c5noc(C(C)C)n5)ccn4)C(=O)[C@H]4CC[C@H](CC(=O)O)CC4)(CC2)CC3)cc1C [Compound 4.21, trans-2-(4-((4-(5-lsopropyl-1,2,4-oxadiazol-3-yl)pyridin-2-yl)((4-(4-methoxy-3-methylphenyl)bicyclo[2.2.2]octan-1-yl)methyl)carbamoyl)cyclohexyl)acetic acid]
COc1ccc(C23CCC(CN(c4cncc(-c5cnn(C(C)C)c5)n4)C(=O)[C@H]4CC[C@H](CC(=O)O)CC4)(CC2)CC3)cc1C (relative stereo) [Compound 4.10, trans-2-(4-((6-(1-Isopropyl-1H-pyrazol-4-yl)pyrazin-2-yl)((4-(4-methoxy-3-methylphenyl)bicyclo[2.2.2]octan-1-yl)methyl)carbamoyl)cyclohexyl)acetic acid]
COc1ccc(C23CCC(CN(c4cc(-n5cnc(C(C)C)c5)ccn4)C(=O)[C@H]4CC[C@H](CC(=O)O)CC4)(CC2)CC3)cc1C [Compound 4.25, trans-2-(4-((4-(4-Isopropyl-1H-imidazol-1-yl)pyridin-2-yl)((4-(4-methoxy-3-methylphenyl)bicyclo[2.2.2]octan-1-yl)methyl)carbamoyl)cyclohexyl)acetic acid]
COc1ccc(C23CCC(CN(c4cc(-c5cnn(C(C)(C)C)c5)ncn4)C(=O)[C@H]4CC[C@H](CC(=O)O)CC4)(CC2)CC3)cc1C [Compound 4.07, trans-2-(4-((6-(1-(tert-Butyl)-1H-pyrazol-4-yl)pyrimidin-4-yl)((4-(4-methoxy-3-methylphenyl)bicyclo[2.2.2]octan-1-yl)methyl)carbamoyl)cyclohexyl)acetic acid]
COc1ccc(C23CCC(CN(c4ccnc(-c5cnn(C(C)C)c5)c4)C(=O)[C@H]4CC[C@H](CC(=O)O)CC4)(CC2)CC3)cc1C (relative stereo) [Compound 4.05, trans-2-(4-((2-(1-Isopropyl-1H-pyrazol-4-yl)pyridin-4-yl)((4-(4-methoxy-3-methylphenyl)bicyclo[2.2.2]octan-1-yl)methyl)carbamoyl)cyclohexyl)acetic acid]
COc1ccc(C23CCC(CN(c4cc(-c5cnn(C(C)C)c5)ccn4)C(=O)[C@H]4CC[C@@H](CC(=O)O)CC4)(CC2)CC3)cc1C [Compound 5.02, cis-2-(4-((4-(1-Isopropyl-1H-pyrazol-4-yl)pyridin-2-yl)((4-(4-methoxy-3-methylphenyl)bicyclo[2.2.2]octan-1-yl)methyl)carbamoyl)cyclohexyl)acetic acid]
COc1ccc(C23CCC(CN(c4cc(-n5ccc(C(C)C)n5)ccn4)C(=O)[C@H]4CC[C@H](CC(=O)O)CC4)(CC2)CC3)cc1C [Compound 4.24, trans-2-(4-((4-(3-Isopropyl-1H-pyrazol-1-yl)pyridin-2-yl)((4-(4-methoxy-3-methylphenyl)bicyclo[2.2.2]octan-1-yl)methyl)carbamoyl)cyclohexyl)acetic acid]

EC50, 1000 to 10000 nM:
COc1ccc(C23CCC(CN(C(=O)[C@@H]4CCC[C@H](C(=O)O)C4)c4cc(-c5cnn(C(C)C)c5)ccn4)(CC2)CC3)cc1C (relative stereo) [Compound 3.05, cis-3-((4-(1-Isopropyl-1H-pyrazol-4-yl)pyridin-2-yl)((4-(4-methoxy-3-methylphenyl)bicyclo[2.2.2]octan-1-yl)methyl)carbamoyl)cyclohexanecarboxylic acid]

EC50, ≤ 50 nM:
CN(C)c1ccc(C23CCC(CN(c4cccc(-c5cnn(C(C)(C)C)c5)c4)C(=O)[C@H]4CC[C@H](CC(=O)O)CC4)(CC2)CC3)cn1 [Compound 2, trans-2-(4-((3-(1-(tert-Butyl)-1H-pyrazol-4-yl)phenyl)((4-(6-(dimethylamino)pyridin-3-yl)bicyclo[2.2.2]octan-1-yl)methyl)carbamoyl)cyclohexyl)acetic acid]
COc1ccc(C23CCC(CN(c4cccc(-c5cnn(C(C)(C)C)c5)c4)C(=O)[C@H]4CC[C@H](C(=O)O)CC4)(CC2)CC3)cc1C [Compound 2.03, trans-4-((3-(1-(tert-Butyl)-1H-pyrazol-4-yl)phenyl)((4-(4-methoxy-3-methylphenyl)bicyclo[2.2.2]octan-1-yl)methyl)carbamoyl)cyclohexanecarboxylic acid]
COc1ccc(C23CCC(CN(c4cc(-c5cnn(C(C)(C)C)c5)ccn4)C(=O)[C@H]4CC[C@H](CC(=O)O)CC4)(CC2)CC3)cc1C [Compound 4.04, trans-2-(4-((4-(1-(tert-Butyl)-1H-pyrazol-4-yl)pyridin-2-yl)((4-(4-methoxy-3-methylphenyl)bicyclo[2.2.2]octan-1-yl)methyl)carbamoyl)cyclohexyl)acetic acid]
COc1ccc(C23CCC(CN(c4cccc(-c5cnn(C(C)C)c5)n4)C(=O)[C@H]4CC[C@H](CC(=O)O)CC4)(CC2)CC3)cc1C (relative stereo) [Compound 4.06, trans-2-(4-((6-(1-Isopropyl-1H-pyrazol-4-yl)pyridin-2-yl)((4-(4-methoxy-3-methylphenyl)bicyclo[2.2.2]octan-1-yl)methyl)carbamoyl)cyclohexyl)acetic acid]
COc1ccc(C23CCC(CN(c4cc(-c5coc(C(C)C)n5)ccn4)C(=O)[C@H]4CC[C@H](CC(=O)O)CC4)(CC2)CC3)cc1C [Compound 4, trans-2-(4-((4-(2-Isopropyloxazol-4-yl)pyridin-2-yl)((4-(4-methoxy-3-methylphenyl)bicyclo[2.2.2]octan-1-yl)methyl)carbamoyl)cyclohexyl)acetic acid]
COc1ccc([C@H]2CC[C@H](CN(c3cccc(-c4cnn(C(C)C)c4)c3)C(=O)[C@H]3CC[C@H](C(=O)O)CC3)CC2)cc1C [Compound 2.01, trans-4-((3-(1-Isopropyl-1H-pyrazol-4-yl)phenyl)((trans-4-(4-methoxy-3-methylphenyl)cyclohexyl)methyl)carbamoyl) cyclohexanecarboxylic acid]
COc1ncc(C23CCC(CN(c4cccc(-c5cnn(C(C)C)c5)c4)C(=O)[C@H]4CC[C@H](CC(=O)O)CC4)(CC2)CC3)cc1C [Compound 4.11, trans-2-(4-((3-(1-Isopropyl-1H-pyrazol-4-yl)phenyl)((4-(6-methoxy-5-methylpyridin-3-yl)bicyclo[2.2.2]octan-1-yl)methyl)carbamoyl)cyclohexyl)acetic acid]
COc1ccc(C23CCC(CN(c4cccc(-c5cnn(C(C)C)c5)c4)C(=O)[C@H]4CC[C@H](CC(=O)O)CC4)(CC2)CC3)cc1C [Compound 3.02, trans-2-(4-((3-(1-Isopropyl-1H-pyrazol-4-yl)phenyl)((4-(4-methoxy-3-methylphenyl)bicyclo[2.2.2]octan-1-yl)methyl)carbamoyl)cyclohexyl)acetic acid]
COc1ccc(C23CCC(CN(c4cc(-c5cnn(C(C)(C)C)c5)ccn4)C(=O)[C@H]4CC[C@H](C(=O)O)CC4)(CC2)CC3)cc1C [Compound 4.03, trans-4-((4-(1-(tert-Butyl)-1H-pyrazol-4-yl)pyridin-2-yl)((4-(4-methoxy-3-methylphenyl)bicyclo[2.2.2]octan-1-yl)methyl)carbamoyl)cyclohexanecarboxylic acid]
COc1ccc(C23CCC(CN(c4cc(-n5cnc(C6CC6)n5)ccn4)C(=O)[C@H]4CC[C@H](CC(=O)O)CC4)(CC2)CC3)cc1C [Compound 4.27, trans-2-(4-((4-(3-Cyclopropyl-1H-1,2,4-triazol-1-yl)pyridin-2-yl)((4-(4-methoxy-3-methylphenyl)bicyclo[2.2.2]octan-1-yl)methyl)carbamoyl)cyclohexyl)acetic acid]
COc1ccc(C23CCC(CN(c4cccc(-n5cnc(C6CC6)c5)c4)C(=O)[C@H]4CC[C@H](CC(=O)O)CC4)(CC2)CC3)cc1C [Compound 4.29, trans-2-(-4-((3-(4-Cyclopropyl-1H-imidazol-1-yl)phenyl)((4-(4-methoxy-3-methylphenyl)bicyclo[2.2.2]octan-1-yl)methyl)carbamoyl)cyclohexyl)acetic acid]
COc1ccc(C23CCC(CN(C(=O)[C@@H]4CCC[C@H](CC(=O)O)C4)c4cc(-c5cnn(C(C)C)c5)ccn4)(CC2)CC3)cc1C (relative stereo) [Compound 5, cis-2-(3-((4-(1-isopropyl-1H-pyrazol-4-yl)pyridin-2-yl)((4-(4-methoxy-3-methylphenyl)bicyclo[2.2.2]octan-1-yl)methyl)carbamoyl)cyclohexyl)acetic acid]

From US20220054469A1, “FARNESOID X RECEPTOR AGONISTS AND USES THEREOF” (Metacrine, Inc., priority 2018, published 2022)
